Results as given in ChEMBL document CHEMBL2176906, “Diterpenoids isolated from Sideritis species protect astrocytes against oxidative stress via Nrf2” (J Nat Prod, 2012).
Calls of active or inactive are those of the source. The rule behind the calls is not given here.

Tested on: U373 MG
Assay: Induction of SOD activity in human U373MG cells assessed per mg protein preincubated at 10 uM for 24 hrs before H2O2 challenge by fluorimetric method (reference value: 14.2 +/- 3 UI/mg protein)
Assay type: functional, U-373MG ATCC
Conditions: not given

SMILES	Activity [IU]
CC1(C)CCC[C@]2(C)[C@@H]1C[C@H](O)[C@@]13C=C[C@@](CO)(C1)[C@H](O)C[C@@H]23 [CONCHITRIOL]	18.8

Tested on: U373 MG
Assay: Induction of SOD activity in human U373MG cells assessed per mg protein preincubated at 5 uM for 24 hrs before H2O2 challenge by fluorimetric method (reference value: 14.2 +/- 3 UI/mg protein)
Assay type: functional, U-373MG ATCC
Conditions: not given

SMILES	Activity [IU]
CC1(C)CCC[C@]2(C)[C@@H]1C[C@H](O)[C@@]13C=C[C@@](CO)(C1)[C@H](O)C[C@@H]23 [CONCHITRIOL]	15

Tested on: U373 MG
Assay: Induction of CAT activity in human U373MG cells assessed per mg protein preincubated at 5 uM for 24 hrs before H2O2 challenge by fluorimetric method (reference value: 18.9 +/- 0.4 UI/mg protein)
Assay type: functional, U-373MG ATCC
Conditions: not given

SMILES	Activity [IU]
CC1(C)CCC[C@]2(C)[C@@H]1C[C@H](O)[C@@]13C=C[C@@](CO)(C1)[C@H](O)C[C@@H]23 [CONCHITRIOL]	18.8

Tested on: U373 MG
Assay: Inhibition of AAPH-induced oxidative stress in human U373MG cells assessed as peroxy radical scavenging activity at 10 uM by ORAC assay
Assay type: functional, cell-based
Conditions: U-373MG ATCC

SMILES	Activity
CC1(C)CCC[C@]2(C)[C@@H]1C[C@H](O)[C@@]13C=C[C@@](CO)(C1)[C@H](O)C[C@@H]23 [CONCHITRIOL]	inactive

Tested on: U373 MG
Assay: Inhibition of AAPH-induced oxidative stress in human U373MG cells assessed as peroxy radical scavenging activity at 5 uM by ORAC assay
Assay type: functional, cell-based
Conditions: U-373MG ATCC

SMILES	Activity
CC1(C)CCC[C@]2(C)[C@@H]1C[C@H](O)[C@@]13C=C[C@@](CO)(C1)[C@H](O)C[C@@H]23 [CONCHITRIOL]	inactive

Tested on: U373 MG
Assay: Inhibition of H2O2-induced oxidative stress in human U373MG cells assessed as GSH/GSSG ratio at 5 uM (reference value: 1.8 +/- 0.1 )
Assay type: functional, U-373MG ATCC
Conditions: not given

SMILES	Ratio
CC1(C)CCC[C@]2(C)[C@@H]1C[C@H](O)[C@@]13C=C[C@@](CO)(C1)[C@H](O)C[C@@H]23 [CONCHITRIOL]	2

Tested on: U373 MG
Assay: Inhibition of H2O2-induced oxidative stress in human U373MG cells assessed as GSH/GSSG ratio at 10 uM (reference value: 1.8 +/- 0.1 )
Assay type: functional, U-373MG ATCC
Conditions: not given

SMILES	Ratio
CC1(C)CCC[C@]2(C)[C@@H]1C[C@H](O)[C@@]13C=C[C@@](CO)(C1)[C@H](O)C[C@@H]23 [CONCHITRIOL]	2.3

Tested on: U373 MG
Assay: Inhibition of H2O2-induced oxidative stress in human U373MG cells assessed as GSSG level per mg protein at 5 uM by fluorimetric method (reference value: 9.2 +/- 0.9 nmol/mg protein)
Assay type: functional, U-373MG ATCC
Conditions: not given

SMILES	Activity [nmol]
CC1(C)CCC[C@]2(C)[C@@H]1C[C@H](O)[C@@]13C=C[C@@](CO)(C1)[C@H](O)C[C@@H]23 [CONCHITRIOL]	8.9

Tested on: U373 MG
Assay: Inhibition of H2O2-induced oxidative stress in human U373MG cells assessed as GSH level per mg protein at 5 uM by fluorimetric method (reference value: 17.1 +/- 1.7 nmol/mg protein)
Assay type: functional, U-373MG ATCC
Conditions: not given

SMILES	Activity [nmol]
CC1(C)CCC[C@]2(C)[C@@H]1C[C@H](O)[C@@]13C=C[C@@](CO)(C1)[C@H](O)C[C@@H]23 [CONCHITRIOL]	18

Tested on: U373 MG
Assay: Induction of ROS production in human U373MG cells at 10 uM after 24 hrs by DCFH-DA assay
Assay type: functional, cell-based
Conditions: U-373MG ATCC

SMILES	Activity
CC1(C)CCC[C@]2(C)[C@@H]1C[C@H](O)[C@@]13C=C[C@@](CO)(C1)[C@H](O)C[C@@H]23 [CONCHITRIOL]	inactive

Tested on: U373 MG
Assay: Induction of ROS production in human U373MG cells at 5 uM after 24 hrs by DCFH-DA assay
Assay type: functional, cell-based
Conditions: U-373MG ATCC

SMILES	Activity
CC1(C)CCC[C@]2(C)[C@@H]1C[C@H](O)[C@@]13C=C[C@@](CO)(C1)[C@H](O)C[C@@H]23 [CONCHITRIOL]	inactive

Tested on: U-373MG ATCC
Assay: Antioxidant activity in human U373MG cells assessed as reduction in H2O2-induced morphological changes preincubated at 5 uM for 24 hrs before H2O2 challenge by phase-contrast microscopy
Assay type: functional, cell-based
Conditions: not given

SMILES	Activity
CC1(C)CCC[C@]2(C)[C@@H]1C[C@H](O)[C@@]13C=C[C@@](CO)(C1)[C@H](O)C[C@@H]23 [CONCHITRIOL]	Active

Tested on: not listed separately
Assay: Cytotoxicity against human U373MG cells assessed as LDH release at 1 to 10 uM after 24 hrs by LDH assay
Assay type: cell-based
Conditions: u-373mg atcc

SMILES	Activity [%]
CC1(C)CCC[C@]2(C)[C@@H]1C[C@H](O)[C@@]13C=C[C@@](CO)(C1)[C@H](O)C[C@@H]23 [CONCHITRIOL]	< 10
